Results taken from patent publication US11207289B2, “Use of benzofuran lignans to induce IL-25 expression and suppress mammary tumor metastasis” (ACADEMIA SINICA, priority 2016, dated 2021).

Legend:
SKBR3 cells = assay: MTT assay, cytotoxic effect on SKBR3; assay type: cell-based, human
Description: (§1) M10, WI38, SKBR3, and MDA-MB-231 cells (1×10^5 cells/ml) dispensed in 96-well plates were incubated with vehicle or test compounds (Q2-3) for 24 h or 72 h in corresponding basal medium in a 5% CO2 incubator. To evaluate the effect of secreted IL-25 from Q2-3-treated fibroblasts on growth activity of mammary tumor cells, 4T1 and MDA-MB-231 cells (1×10^4 cells/ml) dispensed in 96-well plates were incubated with control medium or different fibroblast conditioned media (200 μl/ml) which was changed daily for 5 days. All treatments were performed in triplicate cell cultures. The growth activity of cells was assayed using a 3-(4, 5-dimethythiazol-2-yl)-2, 5-diphenyl tetrazolium bromide (MTT; Sigma-Aldrich) colorimetric method. The absorbance at 570 nm (A570) was measured using a multiwall scanning spectrophotometer.
(§2) FIG. 1 is a schematic depiction of cytotoxic effects of dihydrobenzofuran lignan (Q2-3) on breast tumor cells. (a): Scheme for synthesis of Q2-3 (methyl (E)-3-[2-(3,4-dihydroxyphenyl)-7-hydroxy-3-methoxycarbonyl-2,3-dihydro-1-benzofuran-5yl]prop-2-enoate) from two caffeic acid methyl ester molecules. (b) and (c): MTT assays for cytotoxic effect of Q2-3 on SKBR3 (ER^−Her^+ human breast cancer cell line), MDA-MB-231 (ER^−Her^− human breast cancer cell line), M10 (human normal epithelial cell line) and WI38 (human lung fibroblast cell line). 2×10^4 cells were seeded and compared for their growth activity after treatment with Q2-3 for 24 or 72 h. The beginning cytotoxic dosage of Q2-3 was detected at 0.3 μM, with >50% kill rate on SKBR3 and MDA-MB-231 cells.
(§3) The effects of Q2-3 on cell viability were tested on four different cell lines, i.e., normal human mammary epithelial (M10), normal human […] (WI38), and two human mammary tumor cells (SKBR3 and MDA-MB-231), by treating cells with Q2-3 at various concentrations for 24 h (FIG. 1b) and 72 h (FIG. 1c).

MDA-MB-231 cells = assay: MTT assay, cytotoxic effect on MDA-MB-231; assay type: cell-based, human
Description: as §1, §2, §3

IL-25 = IL-25 expression in lung fibroblasts, 4T1 tumor resection model (IF staining, flow cytometry); assay type: in vivo, mice
Description: BALB/c mice were subcutaneously injected with 4T1-Luc2 cells (5×10^5/100 μl PBS/mouse) into the fourth mammary fat pad under isoflurane anesthesia. Tumor growth was monitored by measuring the tumor volume according to the formula: volume=length×(width)^2/2. After tumors were established (180-200 mm^3) on day 14, test mice were divided into different groups (8 mice/group) and subjected to different treatments. At 15 days post tumor cell implantation, primary 4T1 tumors in situ were surgically removed by a tumor resection process. For drug treatment, mice were administered with different agents, including vehicle-control (PBS), mouse IL-25 protein (10 μg/kg, ProSpec, Vineland, N.J.), Q2-3 (2, 20 or 100 μg/kg) or docetaxel (2 mg/kg; Sigma-Aldrich), by intravenous injection for 3 weeks (3 injections/week) post tumor resection. For in vivo neutralization of mouse IL-25 activity, mice were treated intraperitoneally with either 100 μg anti-mouse IL-25 (IL-17E) antibody (clone 35B; Biolegend) or isotype control rat IgG (100 μg; rat, IgG1κ; Biolegend) at days 0, 3, 6, 9, 12, 15, 18 post tumor resection. To detect metastasis of human MDA-MD-231-Luc2 tumor cells, nude mice were injected subcutaneously with 5×10^5 MDA-MD-231-Luc2 cells into the mammary fat pad under isoflurane anesthesia. After tumors were established (250-350 mm^3) on day 24, test mice were divided into different groups (8 mice/group) and subjected to different treatments. At 25 days post tumor cell implantation, primary MDA-MD-231-Luc2 tumors in situ were surgically removed by a tumor resection process. For drug treatment, mice were administered with PBS (vehicle-control), Q2-3 (100 μg/kg), docetaxel (5 mg/kg) or Q2-3 (100 μg/kg)+docetaxel (5 mg/kg), by intravenous injection for 3 weeks (3 injections/week) post tumor resection. To monitor the progression of mouse (4T1) or human (MDA-MD-231) metastatic tumors, test mice treated with different drugs/agents were compared for their tumor metastatic activity and survival rate aftern another 8 weeks. Bioluminescence signals from the 4T1-luc2 tumor cells in test mice were analyzed using a non-invasive IVIS imaging system (Calipers, Hopkinton, Mass.) after intraperitoneal injection of 150 mg/kg D-luciferin (NanoLight technology, Pinetop, Ariz.).
Lung tissue specimens obtained from each tumor-resected mouse were fixed with 4% formalin and embedded in paraffin. For histological comparison, 6 μm-thick tissue sections were made and stained with hematoxylin and eosin (H&E). For immunofluorescence staining, fixed tissue sections were initially immersed in boiling sodium citrate buffer (0.01 M sodium citrate buffer, pH 6.0) for 30 min Lung tissue sections were blocked with 5% nonfat milk, and incubated with anti-FSP-1 antibody (1:200 dilution; Millipore), FITC-conjugated anti-CD206 antibody (1:200 dilution; Biolegend) or PE-conjugated anti-IL-25 antibody (1:100; R&D) in 1% nonfat milk for 1 hour at room temperature. Sections were then washed with PBS containing 0.1% Tween 20. To detect primary antibodies, some sections were incubated with FITC-conjugated anti-mouse-IgG (1:200; Jackson Immunoresearch, West Grove, Pa.) for FSP-1. 4′,6-Diamidino-2-phenylindole dihydrochloride (1 μg/ml; Sigma-Aldrich) was used to stain the nuclei. Fluorescence microscopy evaluation of immunostained tissue sections was performed using a Zeiss Axiovert 200 M microscope (Carl Zeiss, Heidelberg, Germany) Images were captured with a digital camera (Orca ER, Hamamatsu) and processed using Axiovision 4.6.3 (Carl Zeiss).
For detection of myeloid derived suppressor cells (MDSCs), cells from mouse lung tissue in each group were collected and stained for 30 min at 4° C. with antibodies against specific cell markers, including FITC-conjugated anti-mouse CD11b (for cell surface), APC-Cy7 conjugated anti-mouse Ly-6C and PE conjugated anti-mouse Ly-6G, (both for intracellular staining). All three antibodies were obtained from Biolegend, (San Diego, Calif.). […]

MCF-7 cells = details: cited from earlier work

## COC(=O)/C=C/c1cc(O)c2c(c1)C(C(=O)OC)C(c1ccc(O)c(O)c1)O2 (centres unmarked) [Q2-3, methyl(E)-3-[2-(3,4-dihydroxyphenyl)-7-hydroxy-3-methoxycarbonyl-2,3-dihydro-1-benzofuran-5yl]-prop-2-enoate]
SKBR3 cells; Homo sapiens, SK-BR-3, ≥0.5 μM, 24 h and 72 h, vs 0.1% DMSO control, read-out: growth inhibition
  inhibition at 0.5 µM: ≥ 60%
SKBR3 cells; at 0.3 μM
  kill rate: > 50%
SKBR3 cells; treatment 24 or 72 h
  beginning cytotoxic dosage: 0.3 µM
MDA-MB-231 cells; Homo sapiens, ≥0.5 μM, 24 h and 72 h, vs 0.1% DMSO control, read-out: growth inhibition
  inhibition at 0.5 µM: ≥ 60%
MDA-MB-231 cells; at 0.3 μM
  kill rate: > 50%
MDA-MB-231 cells; treatment 24 or 72 h
  beginning cytotoxic dosage: 0.3 µM
IL-25; 3 weeks post tumor resection, PBS control 5.2%
  total FSP-1+ER-TR7+ fibroblast population in lung: 7.3%
IL-25; 3 weeks post tumor resection, PBS control 16.7%
  cell population of IL-25+ fibroblasts (FSP-1+ER-TR7+IL-25+ cells) in lung: 79.5%
IL-25; Q2-3 100 μg/kg, 21 days post tumor resection
  IL-25 expression in lung fibroblasts (IF staining): readily detectable stimulatory effect
IL-25; data not shown
  increase in FSP-1+IL-25+ fibroblast population in spleen or other tissues: not detected
MCF-7 cells
  anti-proliferation effect: significant anti-proliferation effect
